For 8 compounds, IC50 and Ki results are on record in ChEMBL document CHEMBL1134505, “Secretase targets for Alzheimer's disease: identification and therapeutic potential” (J Med Chem, 2001).

Each structure is given as a SMILES string. Numbered stars: 1 amine (or outer) side, 2 acyl side, 3 side chain; on linkers, the order of the positions; unused ones are H or OH. Square brackets hold non-standard residues; d marks the D form. Peptide text beside a SMILES is read from it. * marks the point of attachment. X1 = CC(C)C[C@H](N[*:1])C(O)C[C@@H](C)C(=O)[*:2]; X2 = C[C@H](N[*:1])C(=O)C(F)(F)C(=O)[*:2]; Sta = CC(C)C[C@H](N)[C@@H](O)CC(=O)O; Nva = CCC[C@H](N)C(=O)O; Cbz = O=C(OCc1ccccc1)*; Boc = CC(C)(C)OC(=O)*

For assay [1], the target named is Gamma-secretase subunit PEN-2 (Homo sapiens, UniProt Q9NZ42). Description: Inhibition of Amyloid-beta production in APP-transfected cells at level of gamma secretase. It is filed as functional, cell-based.
Assay [2] concerns the target T1, Beta-secretase (BACE) (Homo sapiens, UniProt Q9Y5Z0+P56817). The assay can be described thus: Inhibition of beta-secretase activity. The format is protein assay.
For assay [3], the target named is T1, Beta-secretase (BACE). The assay can be described thus: In vitro inhibition of beta-secretase was evaluated. The format is protein assay.
The next assay concerns the target Beta-secretase 1 (Homo sapiens, UniProt P56817). Description: Inhibition of human recombinant beta-secretase.

Sequence of Gamma-secretase subunit PEN-2 (Q9NZ42 whole entry): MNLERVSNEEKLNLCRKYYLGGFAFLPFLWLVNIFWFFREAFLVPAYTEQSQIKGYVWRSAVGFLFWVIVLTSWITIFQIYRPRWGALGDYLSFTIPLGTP
Sequence of Beta-secretase 1 (P56817 whole entry): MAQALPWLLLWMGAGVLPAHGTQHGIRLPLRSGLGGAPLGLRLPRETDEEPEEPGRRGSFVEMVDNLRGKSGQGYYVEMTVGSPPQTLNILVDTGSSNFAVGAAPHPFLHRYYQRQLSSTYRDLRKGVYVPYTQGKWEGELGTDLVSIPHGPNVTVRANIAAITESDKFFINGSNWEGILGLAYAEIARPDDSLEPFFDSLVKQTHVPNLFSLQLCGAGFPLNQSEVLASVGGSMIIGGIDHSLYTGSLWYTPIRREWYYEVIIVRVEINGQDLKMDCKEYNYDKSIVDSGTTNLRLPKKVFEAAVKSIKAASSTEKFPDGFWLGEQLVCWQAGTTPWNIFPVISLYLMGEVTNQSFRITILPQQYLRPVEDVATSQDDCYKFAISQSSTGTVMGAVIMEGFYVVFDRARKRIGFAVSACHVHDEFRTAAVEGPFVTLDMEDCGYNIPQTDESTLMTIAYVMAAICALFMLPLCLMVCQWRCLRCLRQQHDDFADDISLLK

Regarding `CC(C)C[C@@H](C=O)NC(=O)[C@H](CC(C)C)NC(=O)[C@H](CC(C)C)NC(=O)OCc1ccccc1` [MG-132] (Cbz-Leu-Leu-Leu-aldehyde), the IC50 in assay [1] was 200 µM. On the same count and under the same terms, under `CC[C@H](C)[C@H](NC(=O)[C@@H](NC(=O)OC(C)(C)C)C(C)C)C(=O)N[C@@H](C)C(=O)C(F)(F)C(=O)N[C@H](C(=O)N[C@H](C(=O)OC)[C@@H](C)CC)C(C)C` (Boc-VI[X2]VI-OMe) stands 13 µM. In turn, `CC(C)C[C@H](NC(=O)[C@H](Cc1ccccc1)C[C@@H](O)[C@H](Cc1ccccc1)NC(=O)OC(C)(C)C)C(=O)N[C@@H](Cc1ccccc1)C(N)=O` yielded a half-maximal inhibitory concentration (IC50) against Beta-secretase (BACE) [2] of 0.3 µM.

Compound `CC[C@H](C)[C@H](NC(=O)[C@H](CCC(=O)O)NC(=O)[C@H](CCC(=O)O)NC(=O)[C@@H](NC(=O)[C@@H](N)CCCCN)[C@@H](C)O)C(=O)N[C@@H](CO)C(=O)N[C@@H](CCC(=O)O)C(=O)N[C@H](C(=O)N[C@@H](CC(N)=O)C(=O)N[C@@H](CC(C)C)[C@@H](O)CC(=O)N[C@H](C(=O)N[C@@H](C)C(=O)N[C@@H](CCC(=O)O)C(=O)N[C@@H](Cc1ccccc1)C(=O)O)C(C)C)C(C)C` (H-KTEEISEVN[Sta]VAEF-OH) yielded an IC50 against Beta-secretase (BACE) [3] of 30 nM.

As for `CC(C)C[C@H](NC(=O)[C@H](CC(N)=O)NC(=O)[C@@H](N)C(C)C)C(O)C[C@@H](C)C(=O)N[C@@H](C)C(=O)N[C@@H](CCC(=O)O)C(=O)N[C@@H](Cc1ccccc1)C(=O)O` (stereo partly drawn) (H-VN[X1]AEF-OH), the Ki on Beta-secretase 1 was found to be 68 nM. Regarding `CCC[C@@H](C=O)NC(=O)[C@H](CC(C)C)NC(=O)[C@H](CC(C)C)NC(C)=O` (Ac-Leu-Leu-[Nva]-aldehyde), the half-maximal inhibitory concentration (IC50) in assay [1] turned out to be 200 µM. For the compound `CCC[C@@H](C=O)NC(=O)[C@H](CC(C)C)NC(=O)OCc1ccccc1` (Cbz-Leu-[Nva]-aldehyde), the IC50 in assay [1] amounted to 200 µM. In the case of `CC(C)C[C@H](NC(=O)[C@H](CC(N)=O)NC(=O)[C@@H](NC(=O)[C@@H](N)CC(=O)O)C(C)C)C(O)C[C@@H](C)C(=O)N[C@@H](C)C(=O)N[C@@H](CCC(=O)O)C(=O)N[C@@H](Cc1ccccc1)C(=O)O` (stereo partly drawn) (H-DVN[X1]AEF-OH), on Beta-secretase 1, the Ki came out at 10 nM.
